This note sets out measurements from US20030109523A1, “Bicyclic antagonists selective for the alphavbeta3 integrin” (Wyeth, priority 1999, published 2003).

Counter-ions that a name gives are not always drawn.

Series [1] concerns the target T1, Vitronectin Receptor (αVβ3) (Homo sapiens, UniProt P05106+P06756).
T1 construct: expressed in transfected cells; host or cells: 512P5 cells (plasma membrane preparation)
Put plainly: Vitronectin Receptor (αVβ3) Binding Test Procedure. As to conditions: for IC50: read-out: (αVβ3) IC50 RECEPTOR BINDING.

In the next series the target is T2, αVβ3 integrin (Homo sapiens, UniProt P05106+P06756).
T2 construct: αVβ3-expressing cell lines are maintained by standard tissue culture techniques; endogenous in cells; host or cells: αVβ3-expressing cell lines
Kind of series: Osteopontin-αVβ3 Cell Attachment Test Procedure. It is filed as cell-based. The following applies: for IC50: attachment of cells to osteopontin, read-out: (αVβ3) IC50 CELL ATTACHMENT; for remaining activity at 20 µM / remaining activity at 100 µM: % of maximal attachment, read-out: (αVβ3) CELL ATTACHMENT, % @ concentration. On the procedure:
Osteopontin-αVβ3 Cell Attachment Test Procedure
Measuring the effect of compounds on the RGD-dependent attachment of cells to osteopontin mediated by the αVβ3 integrin.
Following incubation the wells were aspirated and washed once with D-PBS; plates can either be used immediately or stored for up to 1 week at 4° C. Prior to assay, the wells were blocked with 1% bovine serum albumin (BSA) in cell suspension media for 1 hour at 37° C. Following the blocking period, wells were aspirated and washed once with D-PBS.
αVβ3-expressing cell lines are maintained by standard tissue culture techniques. […] The cells were pelleted by low-speed centrifugation and washed three times with 0.5 mg/mL trypsin inhibitor in D-PBS (Sigma). The final cell pellet was resuspended in cell suspension media at a concentration of 10^6 cells/mL.
Incubation: 100 μL of diluted test compound was added to osteopontin-coated wells (in triplicate) followed by 100 μL of cell suspension; background cell attachment was determined in uncoated wells. The plate was incubated at 25° C. in a humidified air atmosphere for 1.5 hours. Following the incubation period, the wells were gently aspirated and washed once with D-PBS.
Cell Number Detection: The number of cells attached was determined by an MTT dye conversion assay (Promega) according to the manufacturer's instructions. Briefly, MTT dye was diluted in cell suspension media (15:85) and 100 μL was added to each well. […] The assay plates were covered and incubated at 37° C. in a humidified air atmosphere overnight.
The individual well optical density was expressed as a percentage of the maximal attachment (% Max) wells minus background attachment, and reported as the mean ±standard deviation.

For the next series, the target named is T3, αIIbβ3 integrin (Homo sapiens, UniProt P05106+P08514).
T3 construct: Human Platelets: Platelet-enriched plasma was obtained commercially from a donor pool; from tissue; host or cells: human platelet-rich plasma from a commercial donor pool
Kind of series: ADP-Induced Platelet Aggregation. It is filed as cell-based. The following applies: Table VII; for IC50: ADP 20 uM, human platelets, read-out: Platelet Aggregation αIIbβ3 IC50. The protocol:
Measurement of the Effect of Compounds on ADP-Induced Platelet Aggregation
Measuring the effect of compounds on ADP-induced platelet aggregation mediated by a fibrinogen-αIIbβ3 integrin interaction.
Human Platelets: Platelet-enriched plasma was obtained commercially from a donor pool. The plasma was tested prior to shipment and found to be negative for HIV, HCV and Hepatitis B. Platelet-rich plasma (PRP) was obtained by diluting plasma to an approximate final concentration of 3×10(6) platelets per mL in platelet poor plasma (PPP). PPP was the supernatant of a lowspeed centrifugation of plasma.
Adenosine diphosphate (ADP): ADP was obtained commercially and diluted to 1 mM (stock solution) in distilled, deionized water (ddH2O).
Incubation: PRP and PPP were prewarmed in a water bath at 37° C. […] PRP plus sample compound in a final volume of 500 uL was added to a pre-warmed cuvette in a ChronoLog aggregometer. A control containing PRP and 5 uL of vehicle was treated similarly to the test cuvette; final vehicle concentration was 1%. The two cuvettes were incubated with stirring (1000 rpm) at 37° C. for 5 minutes. Five hundred microliters of PPP was used as a reference (100% aggregation).
Aggregation: To begin the test, ADP was added yielding a final concentration of 20 uM to both samples (plus and minus sample compound). Light transmittance was monitored continuously and compared to the reference cuvette. After five minutes, the test was terminated and the slope and maximal amplitude of the resulting aggregation plot was calculated by the aggregometer.
The percent of maximal aggregation is the ratio of the maximal aggregations of the sample cuvette to the control multiplied by 100 (% Max) and reported as the mean+−standard deviation.

The next series has as its system osteoclasts. Kind of series: Osteoclast Bone Pitting. The following applies: Rattus norvegicus, Osteoclast. It is filed as cell-based, rat. On the procedure:
Osteoclast Bone Pitting The test procedure was conducted as described by R. J. Murrills and D. W. […] At this pH the adherent osteoclasts excavate an adequate number of resorption pits for assay purposes. Slices were fixed in 2.5% glutaraldehyde and osteoclasts counted following tartrate-resistant acid phosphatase staining. […] All cells were stripped from the slice by sonication on 0.25M NH4OH and the resorption pits formed by the osteoclasts during the experiment stained with toluidine blue. Resorption pits were quantified by manually counting. The experiments were conducted according to a block design with osteoclasts from each animal exposed to each treatment. Three replicate slices were used per treatment per animal, such that a total of 96 slices were examined for an experiment involving four animals and eight treatments (including control). Several parameters were recorded on a “per slice” basis: number of pits, number of osteoclasts, number of pits per osteoclast, number of fibroblast-like bone cells. SAS or JMP statistical software were used for statistical analysis. […] IC50s were calculated using dose-response curves.

Setting [2] is: @200 μM, percent of maximal aggregation.
The mark [3] stands for this setting: % Max = percentage of the specific binding, read-out: (αVβ3) RECEPTOR BINDING, % @ concentration.

T3 sequence (P08514 32-887 limits assumed): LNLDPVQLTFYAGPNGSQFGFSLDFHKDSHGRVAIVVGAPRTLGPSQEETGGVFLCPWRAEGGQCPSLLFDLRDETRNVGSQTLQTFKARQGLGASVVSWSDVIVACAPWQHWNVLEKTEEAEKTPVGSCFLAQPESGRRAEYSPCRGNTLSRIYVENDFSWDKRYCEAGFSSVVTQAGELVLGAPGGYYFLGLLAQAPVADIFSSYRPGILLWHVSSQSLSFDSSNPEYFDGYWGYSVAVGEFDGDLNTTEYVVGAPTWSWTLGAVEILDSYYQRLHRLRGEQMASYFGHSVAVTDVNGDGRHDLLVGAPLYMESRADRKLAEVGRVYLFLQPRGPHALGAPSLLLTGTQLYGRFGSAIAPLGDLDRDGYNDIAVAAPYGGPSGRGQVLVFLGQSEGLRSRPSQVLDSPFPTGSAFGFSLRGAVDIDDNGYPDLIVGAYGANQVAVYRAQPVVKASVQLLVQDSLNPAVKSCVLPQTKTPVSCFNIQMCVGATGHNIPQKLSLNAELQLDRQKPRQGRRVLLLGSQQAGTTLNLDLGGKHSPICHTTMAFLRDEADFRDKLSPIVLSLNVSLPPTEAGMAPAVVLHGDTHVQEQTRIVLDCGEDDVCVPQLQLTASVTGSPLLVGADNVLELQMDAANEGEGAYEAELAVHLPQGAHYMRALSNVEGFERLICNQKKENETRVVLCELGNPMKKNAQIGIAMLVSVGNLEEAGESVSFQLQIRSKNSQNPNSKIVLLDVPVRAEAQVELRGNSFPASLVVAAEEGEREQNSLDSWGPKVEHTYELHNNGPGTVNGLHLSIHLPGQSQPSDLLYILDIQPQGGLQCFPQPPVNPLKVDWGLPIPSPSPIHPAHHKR
T3 sequence (P08514 891-1039 partner limits assumed): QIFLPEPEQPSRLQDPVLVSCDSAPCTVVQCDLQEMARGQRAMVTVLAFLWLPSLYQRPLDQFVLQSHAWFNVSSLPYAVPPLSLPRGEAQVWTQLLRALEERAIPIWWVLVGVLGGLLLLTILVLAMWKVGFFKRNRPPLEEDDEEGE
T3 sequence (P05106 27-788): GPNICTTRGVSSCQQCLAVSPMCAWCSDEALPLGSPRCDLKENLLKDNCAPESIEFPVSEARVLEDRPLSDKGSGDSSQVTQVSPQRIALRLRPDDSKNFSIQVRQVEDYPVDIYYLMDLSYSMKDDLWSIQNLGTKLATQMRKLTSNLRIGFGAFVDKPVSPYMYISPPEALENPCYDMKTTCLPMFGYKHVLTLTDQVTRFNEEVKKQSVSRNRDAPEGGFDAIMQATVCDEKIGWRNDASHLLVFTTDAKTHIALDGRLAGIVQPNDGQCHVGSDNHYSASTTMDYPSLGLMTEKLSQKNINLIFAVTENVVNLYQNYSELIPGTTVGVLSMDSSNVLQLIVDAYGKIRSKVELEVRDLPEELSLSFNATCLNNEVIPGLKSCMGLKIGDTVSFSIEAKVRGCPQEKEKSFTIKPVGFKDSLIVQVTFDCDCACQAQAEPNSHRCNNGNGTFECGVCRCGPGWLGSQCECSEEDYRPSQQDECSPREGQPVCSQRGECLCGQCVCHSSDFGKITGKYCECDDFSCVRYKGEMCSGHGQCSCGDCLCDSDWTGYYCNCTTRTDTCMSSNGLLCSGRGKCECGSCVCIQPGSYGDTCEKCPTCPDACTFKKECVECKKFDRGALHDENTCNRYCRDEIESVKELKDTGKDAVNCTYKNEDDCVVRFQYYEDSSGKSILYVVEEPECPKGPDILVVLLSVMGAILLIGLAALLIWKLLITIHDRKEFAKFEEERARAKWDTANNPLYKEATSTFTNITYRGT
T2 sequence (P06756 31-889 limits assumed): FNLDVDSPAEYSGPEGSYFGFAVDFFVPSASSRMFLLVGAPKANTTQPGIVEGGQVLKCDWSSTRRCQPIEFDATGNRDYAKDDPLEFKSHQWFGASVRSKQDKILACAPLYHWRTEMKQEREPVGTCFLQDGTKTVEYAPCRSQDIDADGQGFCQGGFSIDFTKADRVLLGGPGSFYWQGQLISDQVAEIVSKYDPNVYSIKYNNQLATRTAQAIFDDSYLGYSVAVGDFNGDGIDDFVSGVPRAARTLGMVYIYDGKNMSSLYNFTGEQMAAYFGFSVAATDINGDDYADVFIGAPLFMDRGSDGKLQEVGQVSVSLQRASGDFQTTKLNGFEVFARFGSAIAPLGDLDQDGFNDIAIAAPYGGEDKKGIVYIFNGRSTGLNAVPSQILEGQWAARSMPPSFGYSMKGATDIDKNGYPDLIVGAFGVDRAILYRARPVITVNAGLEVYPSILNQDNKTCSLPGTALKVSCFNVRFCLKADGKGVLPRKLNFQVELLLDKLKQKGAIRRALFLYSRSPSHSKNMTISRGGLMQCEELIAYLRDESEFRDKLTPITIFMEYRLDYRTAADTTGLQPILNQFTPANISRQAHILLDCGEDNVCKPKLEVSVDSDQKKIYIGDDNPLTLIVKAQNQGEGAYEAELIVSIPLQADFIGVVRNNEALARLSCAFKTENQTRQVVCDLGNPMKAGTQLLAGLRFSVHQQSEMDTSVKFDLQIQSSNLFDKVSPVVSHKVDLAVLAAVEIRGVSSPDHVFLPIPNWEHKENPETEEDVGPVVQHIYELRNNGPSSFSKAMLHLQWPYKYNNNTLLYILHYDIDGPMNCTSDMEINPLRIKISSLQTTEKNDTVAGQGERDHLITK
T2 sequence (P06756 891-1048 partner limits assumed): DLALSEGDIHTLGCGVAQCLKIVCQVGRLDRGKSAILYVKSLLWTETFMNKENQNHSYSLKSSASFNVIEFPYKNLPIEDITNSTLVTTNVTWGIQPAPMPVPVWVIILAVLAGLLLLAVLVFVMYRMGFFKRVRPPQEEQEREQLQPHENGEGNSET
T2 sequence (P05106 27-788): as the sequence (P05106 27-788) above
T1 sequence (P06756 31-889 limits assumed): as the sequence (P06756 31-889 limits assumed) above
T1 sequence (P06756 891-1048 partner limits assumed): as the sequence (P06756 891-1048 partner limits assumed) above
T1 sequence (P05106 27-788): as the sequence (P05106 27-788) above

For `N=C(N)NCCC=Cc1ccc2c(c1)NC(=O)C(CC(=O)O)C2.O=C(O)C(F)(F)F` (stereo not shown) [Example 112, [7-(4-Guanidino-but-1-enyl)-2-oxo-1,2,3,4-tetrahydro-quinolin-3-yl]-acetic Acid Trifluoroacetate], the melting point (commonly the temperature of the solid-liquid transition) was in the range of 173 to 176 °C. In series [1], the IC50 (in general, the concentration that inhibits the measured activity by half) came to 7 µM. Further, at αVβ3 integrin, the IC50 amounted to 19.7 µM. Besides, on αIIbβ3 integrin (setting [2]), the remaining activity at 200 µM was 80.4%.
In turn, `Cl.N=C(N)NCCC#Cc1ccc2c(c1)NC(=O)C(CC(=O)O)C2` (stereo not shown) [Example 100, [7-(4-Guanidino-but-1-ynyl)-2-oxo-1,2,3,4-tetrahydro-quinolin-3-yl]-acetic Acid Hydrochloride] showed a melting point of 130 to 180 °C. In series [1] (@ 100 μM, % Max = percentage of the specific binding, read-out: (αVβ3) RECEPTOR BINDING, % @ concentration), the remaining activity at 100 µM came to 30.9%. At αVβ3 integrin, the concentration for half-maximal inhibition (IC50) amounted to 79 µM. Moreover, the inhibition (commonly the change of the read-out against control, counted positive when it falls) at 264 µM in the series with osteoclasts (@ 264 μM) stood at 38%. Besides, the concentration for half-maximal inhibition (IC50) at αIIbβ3 integrin came to 216 µM.
`N=C(N)NCCCOc1ccc2cc(CC(=O)O)c(=O)n(Cc3ccccc3)c2c1.O=C(O)C(F)(F)F` [Example 239, [1-Benzyl-7-(3-guanidino-propoxy)-2-oxo-1,2-dihydro-quinolin-3-yl]-acetic Acid Trifluoroacetic Acid Salt] came in with a melting point of 132 to 134 °C. Moreover, the remaining activity at 30 µM in series [1] (setting [3]) amounted to 70%. In addition, on αVβ3 integrin, the remaining activity at 20 µM was 99.7% and the remaining activity at 100 µM amounted to 67.5%. Also, testing at 19.1 µM in the series on osteoclasts (@ 19.1 μM) gave an inhibition of 33%. The “Percent of Maximal” value on αIIbβ3 integrin (setting [2]) was 83.7@200%.
In the case of `N=C(N)NCCCOc1ccc2[nH]c(=O)c(CC(=O)O)cc2c1` [Example 237, [6-(3-Guanidino-propoxy)-2-oxo-1,2-dihydro-quinolin-3-yl]-acetic Acid], the melting point is 207 to 212 °C (dec.). For the same compound, in series [1] (setting [3]), the remaining activity at 30 µM was 100%. At αVβ3 integrin, the remaining activity at 20 µM was 86.2% and the remaining activity at 100 µM worked out at 114%. The remaining activity at 200 µM on αIIbβ3 integrin (setting [2]) worked out at 96.5%.
`N=C(N)NCCCC=Cc1ccc2c(c1)NC(=O)C(CC(=O)O)C2.O=C(O)C(F)(F)F` (stereo not shown) [Example 113, [7-(5-Guanidino-pent-1-enyl)-2-oxo-1,2,3,4-tetrahydro-quinolin-3-yl]-acetic Acid Trifluoroacetate] yielded a melting point of 162 to 165 °C. Besides, in series [1], the IC50 was 4 µM. Also, on αVβ3 integrin, the IC50 was found to be 17.8 µM. For the same compound, the remaining activity at 200 µM on αIIbβ3 integrin (setting [2]) stood at 77.1%.
Turning to `N=C(N)NCCCOc1cccc2c1NC(=O)C(CC(=O)O)C2` (stereo not shown) [Example 234, [8-(3-Guanidino-propoxy)-2-oxo-1,2,3,4-tetrahydro-quinolin-3-yl]-acetic Acid], the melting point lay in the range of 151 to 155 °C. The remaining activity at 30 µM in series [1] (setting [3]) was determined as 100%. At αVβ3 integrin, the remaining activity at 100 µM turned out to be 85%. In the series on osteoclasts, the inhibition at 230 µM turned out to be 8%. In addition, the remaining activity at 200 µM at αIIbβ3 integrin (setting [2]) turned out to be 74.3%.
In turn, `N=C(N)NCCCOc1ccc2cc(CC(=O)O)c(=O)n(Cc3ccccc3)c2c1` [Example 155, [1-Benzyl-7-(3-guanidino-propoxy)-2-oxo-1,2-dihydro-quinolin-3-yl]-acetic Acid] came in with a melting point of 132 to 134 °C. At αIIbβ3 integrin (setting [2]), the remaining activity at 200 µM stood at 83.7%.
`N=C(N)NCCOc1ccc2c(c1)NC(=O)C(CCC(=O)O)C2` (stereo not shown) [Example 230, 3-[7-(2-Guanidino-ethoxy)-2-oxo-1,2,3,4-tetrahydro-quinolin-3-yl]-propionic Acid] showed a melting point of 193 to 196 °C. The remaining activity at 100 µM at αVβ3 integrin was determined as 100%. In addition, at 230 µM the inhibition with osteoclasts was 15%. Besides, the remaining activity at 200 µM at αIIbβ3 integrin (setting [2]) turned out to be 95.2%.
As for `N=C(N)NCCOc1ccc2cc(CCC(=O)O)c(=O)[nH]c2c1.O=[N+]([O-])O` [Example 247, 3-[7-(2-Guanidino-ethoxy)-2-oxo-1,2-dihydro-quinolin-3-yl]-propionic Acid Nitric Acid Salt], the melting point is 211 °C (dec.). At αIIbβ3 integrin (setting [2]), the remaining activity at 200 µM is 100%.
`N=C(N)NCCCOc1ccc2c(c1)CCCC(CC(=O)O)C2.O=C(O)C(F)(F)F` (stereo not shown) [Example 62, [2-(3-Guanidino-propoxy)-6,7,8,9-tetrahydro-5H-benzocyclohepten-6-yl]-acetic Acid Trifluoroacetate] gave a melting point of 109 to 114 °C. In series [1], the IC50 was found to be 1.4 µM. Also, the IC50 at αVβ3 integrin was 14 µM. Also, the IC50 at αIIbβ3 integrin worked out at 169 µM.
Compound `CCN1C(=O)C(CC(=O)O)Cc2ccc(OCCCNC(=N)N)cc21.O=C(O)C(F)(F)F` (stereo not shown) [Example 158, [1-Ethyl-7-(3-guanidino-propoxy)-2-oxo-1,2,3,4-tetrahydro-quinolin-3-yl]-acetic Acid Trifluoroacetate] registered a melting point of 165 to 166 °C. In the series on osteoclasts (@ 216 μM), this compound yielded an inhibition at 216 µM of 13%.
On to `N=C(N)NCCCOc1ccc2cc(CC(=O)O)c(=O)[nH]c2c1.O=C(O)C(F)(F)F` [Example 186, [7-(3-Guanidino-propoxy)-2-oxo-1,2-dihydro-quinolin-3-yl]-acetic Acid Trifluoroacetate], for which the melting point was 195 to 198 °C. At αVβ3 integrin, the remaining activity at 20 µM was determined as 113% and the remaining activity at 100 µM came out at 68.9%.
For the compound `N=C(N)NCCCOc1ccc2c(c1)NC(=O)C(CCC(=O)O)C2` (stereo not shown) [Example 231, 3-[7-(3-Guanidino-propoxy)-2-oxo-1,2,3,4-tetrahydro-quinolin-3-yl]-propionic Acid], the melting point lay in the range of 157 to 159 °C. Also, the remaining activity at 30 µM in series [1] (setting [3]) came to 55.9%. Further, at αVβ3 integrin, the remaining activity at 100 µM worked out at 93%. Also, on αIIbβ3 integrin (setting [2]), the remaining activity at 200 µM is 78.3%.
In the case of `NCCCOc1ccc2cc(CC(=O)O)c(=O)n(Cc3ccccc3)c2c1` (as salt: salt) [Example 136, [1-Benzyl-7-(3-amino-propoxy)-2-oxo-1,2-dihydro-quinolin-3-yl]-acetic Acid], the melting point lay in the range of 126 to 128 °C.
The compound `CCn1c(=O)c(CC(=O)O)cc2ccc(OCCCNC(=N)N)cc21.O=C(O)C(F)(F)F` [Example 149, [1-Ethyl-7-(3-guanidino-propoxy)-2-oxo-1,2-dihydro-quinolin-3-yl]-acetic Acid Trifluoroacetate] had a melting point of 131 °C. In addition, at αVβ3 integrin, the remaining activity at 20 µM stood at 96.3% and the remaining activity at 100 µM came to 71.5%. The remaining activity at 200 µM at αIIbβ3 integrin (setting [2]) stood at 90.2%.
